Measured values: patent US5200553A, “Biologically active carboxylic acid esters” (Kupat Holim Health Insurance Institution of the General …, priority 1987, dated 1993)
Counter-ions that a name gives are not always drawn. Like-named read-outs stand apart in the source and are kept apart here.

Assays:
[1] = tested on: promyelocytic cell line HL-60; test: Inhibition of cell proliferation, tritiated thymidine incorporation, cells (ii); format: cell-based; settings: for inhibition at 500 µM: Homo sapiens
Procedure: (§1) The compound of the invention prepared in Example I gave the results indicated in paragraphs (a), (b) and (c), below, when tested on: (i) leukemic cells from six myeloid leukemic patients, and (ii) promyelocytic cell line HL-60.
(b) Inhibition of cell proliferation. This was evaluated by inhibition of tritiated thymidine incorporation. The results in the following table are self-explanatory:
In a further experiment, cells (ii) were incubated with the compound of Example I or with sodium butyrate. After a period of time as specified in the following table, the agents were removed by washing the cells, and thymidine incorporation was measured 15 hours after the end of incubation.

[2] = tested on: leukemic cells from six myeloid leukemic patients and promyelocytic cell line HL-60 (which one is not stated); test: Induction of cytodifferentiation, reduction of nitro blue tetrazolium (NBT); format: cell-based; settings: 0.15 mM
Procedure: (c) Induction of cytodifferentiation. This was evaluated by reduction of nitro blue tetrazolium (NBT), which is indicative of functional maturity of leucocytes.

Lewis Lung Carcinoma = test: In vivo efficacy, 3LL32 subcutaneously implanted Lewis Lung Carcinoma; parameters: species or system mouse; settings: i.p.
Procedure: (§2) Moreover, the in vivo efficacy of the compound of the invention prepared in Example I was tested according to protocols adopted from the "Developmental Therapeutics Program, Division of Cancer Treatment, National Cancer Institute", NIH Publication 84-2635, using the following animal models: (1) 3B131 Intraperitoneally (i.p.) implanted B16 Melanoma; (2) 3B132 Subcutaneously (s.c.) implanted B16 Melanoma: and (3) 3LL32 Subcutaneously (s.c.) implanted Lewis Lung Carcinoma. Results according to the following table were obtained.

[3] = tested on: refractory acute myelogenous leukemia; settings: 0.5 g./kg./day; cited from earlier work
[4] = tested on: leukemic cells from six myeloid leukemic patients; test: Inhibition of cell proliferation, tritiated thymidine incorporation, cells (i); format: cell-based, human
Procedure: as §1
(b) Inhibition of cell proliferation. This was evaluated by inhibition of tritiated thymidine incorporation. The results in the following table are self-explanatory: […]

neuroblastoma = settings: doses of up to 10 g./day; cited from earlier work
[5] = in vivo; cited from earlier work
[6] = cited from earlier work
[7] = tested on: leukemic cells from six myeloid leukemic patients; test: Cytotoxicity, viability of cells 60 hours after exposure, Trypan Blue exclusion, cells (i); format: cell-based; settings: Homo sapiens, read-out: Concentration which resulted in 50% inhibition (LD50), viability
Procedure: as §1
(§3) (a) Cytotoxicity. The viability of the cells 60 hours after exposure was determined by Trypan Blue exclusion.

[8] = tested on: acute myelogenous leukemia; settings: human, in vivo
variety of tumor cells = settings: induction of morphological and biochemical changes; cited from earlier work
[9] = tested on: promyelocytic cell line HL-60; test: Cytotoxicity, viability of cells 60 hours after exposure, Trypan Blue exclusion, cells (ii); format: cell-based; settings: Homo sapiens, read-out: Concentration which resulted in 50% inhibition (LD50), viability
Procedure: as §1, §3

[10] = tested on: colony forming units, granulocytes and macrophages (CFU-GM); settings: CFU-GM in soft agar; normal bone marrow and peripheral blood of leukemic patients; unpublished work; cited from earlier work
[11] = cited from earlier work; remark: listed apart in the source
[12] = tested on: leukemic cells isolated from myelogenous leukemic patients
B16 Melanoma [13] = test: In vivo efficacy, 3B131 intraperitoneally implanted B16 Melanoma; parameters: species or system mouse; settings: i.p., 1-9 days, daily
B16 Melanoma [14] = test: In vivo efficacy, 3B132 subcutaneously implanted B16 Melanoma; settings: 125 mg./kg./mouse, i.p.; 1-6 days, daily
Procedure: as §2

mouse spleen cells = test: Colony stimulating factors (CSF) production by murine splenocytes, CFU-GM from BALB/c mouse bone marrow; format: cell-based; settings: for CSF production, %: ConA = 100
Procedure: (§4) CSF activity was assayed by the ability of the supernatants from these cultures to support development on semisolid agar of CFU-GM (colony forming units--granulocytes and macrophages) from bone marrow cells of BALB/c mice.

human lymphocytes = test: Colony stimulating factors (CSF) production by human lymphocytes, CFU-GM from BALB/c mouse bone marrow; format: cell-based; settings: for CSF production, # CFU-GM / CSF production, %: 72 hours incubation; for CSF production, %: PHA = 100
Procedure: as §4

[15] = Therapeutic index (LD50/ED50), standard procedures; settings: in vivo
[16] = Activity of hydrolysis product under conditions in which the parent compound was active; settings: conditions in which the parent compound (Example I) was active
Description: It is postulated that the butyrate esters provided by the invention undergo intracellular hydrolysis to butyric acid; the residual fragments of the hydrolysis would be non-toxic. […] An alternative metabolic route may involve (where appropriate) the oxidation of butyrates to hydroxy-butyrates and/or oxo-butyrates.

[17] = Experiment 1, 20 μM, 24 hours incubation

CCCC(=O)[O-].[Na+] [sodium butyrate, reference compound]
inhibition at 500 µM ([1]; HL-60, read-out: % inhibition of tritiated thymidine incorporation, 0.5 mM, incubation 0.5 hours, washed, measured 15 hours after end of incubation): 0% | inhibition at 500 µM ([1]; HL-60, read-out: % inhibition of tritiated thymidine incorporation, 0.5 mM, incubation 3.0 hours, washed, measured 15 hours after end of incubation): 0% | inhibition at 500 µM ([1]; HL-60, read-out: % inhibition of tritiated thymidine incorporation, 0.5 mM, incubation 16.0 hours, washed, measured 15 hours after end of incubation): 0% | inhibition at 500 µM ([1]; HL-60, read-out: % inhibition of tritiated thymidine incorporation, 0.5 mM, incubation 24.0 hours, washed, measured 15 hours after end of incubation): 22% | inhibition at 500 µM ([1]; HL-60, read-out: % inhibition of tritiated thymidine incorporation, 0.5 mM, incubation 48.0 hours, washed, measured 15 hours after end of incubation): 50% | inhibition at 500 µM ([1]; HL-60, read-out: % inhibition of tritiated thymidine incorporation, 0.5 mM, incubation 62.0 hours, washed, measured 15 hours after end of incubation): 94% | NBT reduction (% of positive cells) ([2]; incubation 24 hours): 11 % of positive cells | NBT reduction (% of positive cells) ([2]; incubation 48 hours): 29 % of positive cells | NBT reduction (% of positive cells) ([2]; incubation 72 hours): 48 % of positive cells | NBT reduction (% of positive cells) ([2]; incubation 96 hours): 66 % of positive cells

O=P1(N(CCCl)CCCl)NCCCO1 (stereo not shown) [cytoxan, reference compound]
ILS (increased life span compared to untreated animals) (Lewis Lung Carcinoma; 100 mg./kg./mouse, day 1 only): 152%

CCCC(=O)O [butyric acid/salts, butyric acid]
remission (in words) [3]: partial and temporary remission | toxic effects (in words) [3]: without detectable toxic effects | inhibition of tritiated thymidine incorporation (in words) ([1]; cells (ii), 24 hours, up to 1 mM): no inhibition | inhibition of tritiated thymidine incorporation (in words) ([4]; 24 hours, up to 2 mM): no inhibition | toxicity (in words) (neuroblastoma): no clinically detectable toxicity | clearance (in words) [5]: high clearance | metabolization (in words) [5]: rapid metabolization | induction period ([6]; in vitro): 48 h | induction period ([6]; in vivo): 96 to 120 h | IC50 [7]: 1000 µM | adverse reaction (in words) [8]: no adverse reaction | anti-tumor activity (in words) (variety of tumor cells): anti-tumor activity | IC50 [9]: 400 µM | selectivity (in words) [10]: selectivity of butyric acid/salts was demonstrated | toxicity (in words) ([11]; high dosages): no toxicity | fluid overload and alkalosis (in words) ([11]; human, in vivo): fluid overload and mild alkalosis may occur | cytotoxic and cytodifferentiating potency (in words) [12]: the most potent cytotoxic and cytodifferentiating agent

CCCC(=O)OCOC(=O)C(C)(C)C [Example I, Pivaloyloxymethyl butyrate]
ILS (increased life span compared to untreated animals) (Lewis Lung Carcinoma; 125 mg./kg./mouse, 1-6 days, daily): 152% | ILS (increased life span compared to untreated animals) (Lewis Lung Carcinoma; 125 mg./kg./mouse, 1-18 days, every odd day): 186% | ILS (increased life span compared to untreated animals) (B16 Melanoma [13]; 250 mg./kg./mouse): 154% | inhibition at 500 µM ([1]; HL-60, 0.5 mM, incubation 0.5 hours, washed, measured 15 hours after end of incubation, read-out: % inhibition of tritiated thymidine incorporation): 52% | inhibition at 500 µM ([1]; HL-60, 0.5 mM, incubation 3.0 hours, washed, measured 15 hours after end of incubation, read-out: % inhibition of tritiated thymidine incorporation): 92% | inhibition at 500 µM ([1]; HL-60, 0.5 mM, incubation 16.0 hours, washed, measured 15 hours after end of incubation, read-out: % inhibition of tritiated thymidine incorporation): 99% | inhibition at 500 µM ([1]; HL-60, 0.5 mM, incubation 24.0 hours, washed, measured 15 hours after end of incubation, read-out: % inhibition of tritiated thymidine incorporation): 99% | inhibition at 500 µM ([1]; HL-60, 0.5 mM, incubation 48.0 hours, washed, measured 15 hours after end of incubation, read-out: % inhibition of tritiated thymidine incorporation): 99% | inhibition at 500 µM ([1]; HL-60, 0.5 mM, incubation 62.0 hours, washed, measured 15 hours after end of incubation, read-out: % inhibition of tritiated thymidine incorporation): 99% | inhibition at 500 µM ([1]; HL-60, 0.5 h, cells (ii), 0.5 mM, 0.5 hr. exposure, read-out: % inhibition of tritiated thymidine incorporation): 52% | inhibition at 500 µM ([1]; HL-60, 15 h, cells (ii), 0.5 mM, 15 hrs. exposure, read-out: % inhibition of tritiated thymidine incorporation): 99% | inhibition at 100 µM ([4]; Homo sapiens, 0.1 mM, 15 hrs. exposure): 88% | inhibition at 200 µM ([4]; Homo sapiens, 0.2 mM, 15 hrs. exposure): 99% | NBT reduction (% of positive cells) ([2]; incubation 24 hours): 24 % of positive cells | NBT reduction (% of positive cells) ([2]; incubation 48 hours): 49 % of positive cells | NBT reduction (% of positive cells) ([2]; incubation 72 hours): 66 % of positive cells | NBT reduction (% of positive cells) ([2]; incubation 96 hours): 77 % of positive cells | ILS (increased life span compared to untreated animals) (B16 Melanoma [14]): 150% | IC50 [7]: 150 µM | CSF production, # CFU-GM (mouse spleen cells; [17]): 11 # CFU-GM | CSF production, % (mouse spleen cells; [17]): 10% | CSF production, % (mouse spleen cells; Experiment 1, 50 μM, 24 hours incubation): 0% | CSF production (in words) (mouse spleen cells; murine lymphocytes): stimulates CSF production | IC50 [9]: 100 µM | CSF production, # CFU-GM (human lymphocytes; Experiment 1, 20 μM): 10 # CFU-GM | CSF production, % (human lymphocytes; Experiment 1, 20 μM): 33% | CSF production, # CFU-GM (human lymphocytes; Experiment 1, 50 μM): 3 # CFU-GM | CSF production, % (human lymphocytes; Experiment 1, 50 μM): 10% | CSF production, # CFU-GM (human lymphocytes; Experiment 2, 20 μM): 43 # CFU-GM | CSF production, % (human lymphocytes; Experiment 2, 20 μM): 105% | CSF production, # CFU-GM (human lymphocytes; Experiment 2, 50 μM): 16 # CFU-GM | CSF production, % (human lymphocytes; Experiment 2, 50 μM): 39% | CSF production (in words) (human lymphocytes; human lymphocytes): stimulates CSF production | selectivity ratio [15]: 15 to 20

N.N.[Cl][Pt][Cl] [cisplatin, reference compound]
ILS (increased life span compared to untreated animals) (B16 Melanoma [13]; 1.5 mg./kg./mouse): 164%

CC(C)(C)C(=O)O [pivalic acid]
activity (in words) [16]: shows no activity
